T1: DarB (Bacillus subtilis, UniProt O31698)
T1 sequence (O31698 1-147): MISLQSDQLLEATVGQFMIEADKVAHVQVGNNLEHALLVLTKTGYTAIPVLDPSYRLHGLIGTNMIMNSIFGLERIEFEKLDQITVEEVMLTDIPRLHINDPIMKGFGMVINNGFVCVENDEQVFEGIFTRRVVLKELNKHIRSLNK


Assays:
DarB = target: T1, DarB; test: ITC and crystal structure; format: binding
crystal structure = target: the molecule itself; test: crystal structure

Kd (DarB) [µM] | Molecule | stoichiometry N (crystal structure)
91.1 | Nc1ncnc2c1ncn2[C@@H]1O[C@H](COP(=O)(O)O)[C@@H](O)[C@H]1O [AMP] | 
 | DarB (c-di-AMP receptor protein, CBS domain protein) of Bacillus subtilis, wild type (natural protein) MISLQSDQLLEATVGQFMIEADKVAHVQVGNNLEHALLVLTKTGYTAIPVLDPSYRLHGLIGTNMIMNSIFGLERIEFEKLDQITVEEVMLTDIPRLHINDPIMKGFGMVINNGFVCVENDEQVFEGIFTRRVVLKELNKHIRSLNK | 2
